Results reported in patent publication US10597388B2, “Pyridazinone herbicides” (FMC CORPORATION, priority 2014, dated 2020).

How the values were obtained:
Format in all cases: in vivo
kochia (Kochia scoparia) [1] = assay: Test C greenhouse herbicide test, postemergence; conditions: for Plant response rating, Kochia: Postemergence
Procedure, shortened: (§1)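 Visual injury scores (0–100, where 100 means complete control) were assigned 13 to 15 d after postemergence application, by comparison with untreated plants. Treated seedlings stood 2 to 18 cm tall, at the 1- to 4-leaf stage.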

[2] = test system: oat, wild (wild oat, Avena fatua); assay: Test C greenhouse herbicide test, postemergence; conditions: for Plant response rating, Oat, Wild: Postemergence
Procedure, shortened: as §1

[3] = test system: galium (catchweed bedstraw, Galium aparine); assay: Test A greenhouse herbicide test, postemergence
Procedure, shortened: (§2)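 Pot-grown plants (loam soil/sand blend), 2–10 cm tall at the one- to two-leaf stage, received postemergence sprays of formulated test chemical. After about 10 d in the greenhouse, injury was rated visually against untreated controls on a 0 (no effect) to 100 (complete control) scale.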

[4] = test system: blackgrass (Alopecurus myosuroides); assay: Test A greenhouse herbicide test, postemergence
Procedure, shortened: as §2

[5] = test system: barnyardgrass (Echinochloa crus-galli); assay: Test A greenhouse herbicide test, pre- and postemergence
Procedure, shortened: (§3)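 Seeds in loam–sand blend received a preemergence directed soil spray; plants at 2–10 cm, one- to two-leaf stage, received postemergence sprays. Compounds in a non-phytotoxic solvent with surfactant. After about 10 d in a greenhouse, injury rated visually versus untreated controls on a 0–100 scale (100 = complete control).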

[6] = test system: ragweed (common ragweed, Ambrosia elatior); assay: as above
Procedure, shortened: as §3

kochia (Kochia scoparia) [7] = assay: as above
Procedure, shortened: as §3

[8] = test system: foxtail, giant (giant foxtail, Setaria faberii); assay: as above
Procedure, shortened: as §3

[9] = test system: pigweed (Amaranthus retroflexus); assay: as above
Procedure, shortened: as §3

[10] = test system: ryegrass, Italian (Italian ryegrass, Lolium multiflorum); assay: as above
Procedure, shortened: as §3

[11] = test system: wheat (Triticum aestivum); assay: as above; conditions: Postemergence
Procedure, shortened: as §3

corn (Zea mays) = assay: as above; conditions: Postemergence
Procedure, shortened: as §3

[12] = 125 g ai/ha, scale 0 to 100, 0 is no effect, 100 is complete control
[13] = 250 g ai/ha, scale 0 to 100, 0 no effect, 100 complete control, 13 to 15 d
[14] = postemergence, 62 g ai/ha, scale 0 to 100, 0 no effect, 100 complete control
[15] = 125 g ai/ha, 0 to 100 scale where 0 is no effect and 100 is complete control
[16] = 500 g ai/ha, visual rating after approx. 10 d, 0 to 100 scale (0 no effect, 100 complete control)
[17] = Postemergence, 125 g ai/ha, 0 to 100 scale where 0 is no effect and 100 is complete control
[18] = Preemergence, 125 g ai/ha, 0 to 100 scale where 0 is no effect and 100 is complete control
[19] = Preemergence, 500 g ai/ha, 0 to 100 scale where 0 is no effect and 100 is complete control
[20] = Postemergence, 500 g ai/ha, visual rating after approx. 10 d, 0 to 100 scale (0 no effect, 100 complete control)

Compound: CC(=O)Oc1c(C#N)nn(C)c(=O)c1-c1c(C)ccc2ccccc12 [Compound 98]
- Plant response rating, Kochia (kochia (Kochia scoparia) [1]; [12]): 60
- Plant response rating, Kochia (kochia (Kochia scoparia) [1]; [13]): 80
- Kochia plant response rating (kochia (Kochia scoparia) [1]; [14]): 20
- Plant response rating, Oat, Wild [2, 12]: 95
- Plant response rating, Oat, Wild [2, 13]: 100
- Oat, Wild plant response rating [2, 14]: 80
- Plant response rating, Galium [3, 15]: 100
- Plant response rating, Galium [3, 16]: 100
- Plant response rating, Blackgrass [4, 15]: 30
- Blackgrass plant response rating ([4]; 500 g ai/ha, 0 to 100 scale, 0 is no effect, 100 is complete control): 30
- Plant response rating, Barnyardgrass [5, 17]: 90
- Barnyardgrass plant response rating ([5]; Postemergence, 500 g ai/ha, 0 to 100 scale, 0 is no effect, 100 is complete control): 90
- Barnyardgrass plant response rating [5, 18]: 40
- Plant response rating, Barnyardgrass [5, 19]: 100
- Plant response rating, Ragweed [6, 17]: 100
- Plant response rating, Ragweed [6, 20]: 100
- Ragweed plant response rating [6, 18]: 60
- Plant response rating, Ragweed [6, 19]: 90
- Plant response rating, Kochia (kochia (Kochia scoparia) [7]; [17]): 30
- Plant response rating, Kochia (kochia (Kochia scoparia) [7]; [20]): 60
- Kochia plant response rating (kochia (Kochia scoparia) [7]; [18]): 20
- Plant response rating, Kochia (kochia (Kochia scoparia) [7]; [19]): 40
- Plant response rating, Foxtail, Giant [8, 17]: 90
- Plant response rating, Foxtail, Giant [8, 20]: 100
- Foxtail, Giant plant response rating [8, 18]: 90
- Plant response rating, Foxtail, Giant [8, 19]: 100
- Plant response rating, Pigweed [9, 17]: 100
- Plant response rating, Pigweed [9, 20]: 100
- Pigweed plant response rating [9, 18]: 100
- Plant response rating, Pigweed [9, 19]: 100
- Plant response rating, Ryegrass, Italian [10, 17]: 90
- Plant response rating, Ryegrass, Italian [10, 20]: 100
- Ryegrass, Italian plant response rating [10, 18]: 20
- Plant response rating, Ryegrass, Italian [10, 19]: 90
- Plant response rating, Wheat [11, 15]: 30
- Plant response rating, Wheat [11, 16]: 30
- Plant response rating, Corn (corn (Zea mays); [15]): 20
- Plant response rating, Corn (corn (Zea mays); [16]): 20
